Entries after “also recorded” stand apart in the source; their conditions may differ. Counter-ions that a name gives are not always drawn.
Test system: ZIKV MR766 virus strain
Experiment: Prophylactic treatment of ZIKV infected SCID-Beige mice
Format: in vivo
Protocol: (A) Scheme of prophylactic treatment of HH in vivo. HH was administrated to SCID-Beige mice 12 h before infection with MR766 virus strain. HH was injected at a dose of 100 mg/kg/day subcutaneously and euthanized at day 7. (B) qRT-PCR analysis of total ZIKV vRNA in liver, spleen, kidney and brain of ZIKV infected mice. n=12 for liver, spleen and kidney and 20 for brain. (C) qRT-PCR analysis of total ZIKV vRNA in brains of ZIKV-infected mice treated with vehicle (n=14) or HH (n=8). […] (D-F) Immunohistochemical analysis of adult cortex. […] Scale bar=100 μm in (D) and 10 μm in (E, F). (G-I) Immunohistochemical analysis of adult hippocampus. […] Scale bar=100 μm in (G) and 10 μm in (H, I). (J-L) Immunohistochemical analysis of adult striatum. […] Scale bar=100 μm in (J) and 10 μm in (K, L). (M, N) Immunohistochemical analysis of cellular apoptosis in adult cortex. […] Scale bar=100 μm in (M) and 10 μm in (N). (O, P) Expression kinetics of total vRNA (O) and (−) strand vRNA (P) of ZIKV (MR766 strain) in mouse brain. N is larger or equal to 4 mice at each time points. The mice were inoculated with (1×10^6 PFU) through intraperitoneal injection. The mice were euthanized at 12 h, 24 h, 3 days, 4 days and 5 days post-infection. (Q) Scheme of therapeutic treatment of HH on ZIKV (MR766 strain) infected mice. The SCID-beige mice were infected with ZIKV (MR766 strain, 1×10^6 PFU). The mice at 5 days post-infection were treated with 100 mg/kg HH or vehicle daily for 5 days. The mice were then euthanized and RNA from brains was analyzed using qRT-PCR. (R, S) qRT-PCR analysis of total vRNA (R) and (−) strand RNA (S) in the brains of mice treated with vehicle (n=8) or HH (n=8) at day 5 post-infection. (T, U) Expression kinetics of total vRNA (N) and (−) strand vRNA (O) of ZIKV (FSS13025 strain) in mouse brain. N is larger or equal to 4 mice at each time points. The mice were inoculated with (3×10^6 PFU) through intraperitoneal injection. The mice were euthanized at 12 h, 24 h, 3 days, 5 days and 7 days post-infection. (V) Scheme of therapeutic treatment of HH on ZIKV (FSS13025 strain) infected mice. The SCID-beige mice were infected with ZIKV (FSS13025 strain, 3×10^6 PFU). The mice at 7 days post-infection were treated with 100 mg/kg HH or vehicle daily for 7 days. The mice were euthanized after 7 days treatment and RNA from brains was analyzed using qRT-PCR. (W, X) qRT-PCR analysis of total vRNA (W) and (−) strand RNA (X) in the brains of mice treated with vehicle (n=8) or HH (n=11) at day 7 post-infection. p values were calculated by one-way repeated measures ANOVA or two-way repeated measures ANOVA with a Bonferroni test for multiple comparisons. *p<0.05, **p<0.01 and ***p<0.001.
PBS, the solvent used to dissolve both compounds, was used as vehicle control.
The mice were euthanized at day 7 post-infection. Total ZIKV vRNA was then quantified in multiple organs of ZIKV-infected mice treated with vehicle, including liver, spleen, kidney and brain (FIG. 4B).
The immunohistochemical analysis of mouse tissues was performed on cryosections. In brief, the tissues were fixed overnight with 4% PFA at 4° C., embedded in OCT, and then sectioned at 30 μm for immunostaining. The primary and secondary antibodies were used as described above.
Adult mouse infection and in vivo drug testing. 6-8 week old female SCID-Beige mice were infected with ZIKV (2.5×10^5 PFU in 0.5 ml culture fluid) through intraperitoneal injection.

[1] = HH 100 mg/kg/day subcutaneously, hydrobromide

For `CN1CCC2=C[C@H](O)[C@H]3OC(=O)c4cc5c(cc4[C@H]3[C@@H]21)OCO5` [HH, hippeastrine hydrobromide], the “ZIKV vRNA in brain” value (HH 100 mg/kg/day subcutaneously from 12 h before infection, day 7 post-infection) was “significantly lower level”, the “ZIKV infection of adult cortex (immunohistochemistry)” value [1] was “fully inhibits infection of adult cortex; also recorded: completely inhibited” and the “ZIKV infection of adult hippocampus (immunohistochemistry)” value [1] was “completely inhibits infection of the adult hippocampus; also recorded: completely inhibited”. The “ZIKV infection of adult striatum (immunohistochemistry)” value [1] was “fully inhibits infection of the adult striatum; also recorded: completely inhibited” and the “cellular apoptosis (CAS3) associated with ZIKV infection in the cortex” value [1] was “rescues cellular apoptosis; also recorded: completely inhibited”.

Reference: patent publication US11466020B2, “Compounds and compositions for inhibition and elimination of Zika infection and uses for same” (Cornell University, priority 2017, dated 2022)
